Measured values reported in article PMC10305181, “A VEGFB-Based Peptidomimetic Inhibits VEGFR2-Mediated PI3K/Akt/mTOR and PLCγ/ERK Signaling and Elicits Apoptotic, Antiangiogenic, and Antitumor Activities” (Pharmaceuticals, 2023).

Tests used:
[1] = molecular target: VEGFR2 extracellular domain (UniProt P35968); assay: ELISA; ELISA-based displacement assay as in ref. 51 with modifications; 20 ng VEGFR2 extracellular domain; biotinylated VEGF (btVEGF165) displaced by peptide; C-VGB3 0-316 μM, L-VGB3 up to 3 mM; triplicate
[2] = system: extracellular domain of VEGFR2 (KDR); assay: ELISA-based displacement (competition binding) of biotinylated VEGF from VEGFR2
Description: Figure 3 The binding affinity of C-VGB3 to VEGFR2. (A) ELISA-based displacement assay. The gradient concentrations of C-VGB3 (0, 0.316, 1, 3.16, 10, 31.6, 100, and 316 μM) were used in the assay. […] Error bars denote ± SEM. n = 3; ** p = 0.001, *** p = 0.0001, **** p < 0.0001, ns = not significant; one-way ANOVA. (B) A three-dimensional (produced by UCSF chimera software version 1.12) and a two-dimensional representation (produced by LigPlot software) of interactions in the C-VGB3/VEGFR2 complex is shown on the left and the right, respectively.
A displacement assay was conducted as reported previously with some modifications, including using 20 ng of the VEGFR2 extracellular domains (R&D Systems, Minneapolis, MN, USA). Peptide compounds were assayed three times per experiment.
Figure S6. Evaluating the binding capability of L-VGB3 to VEGFR2
(A) ELISA-based displacement assay. The gradient concentrations of L-VGB3 (3.16, 10, […]
to the extracellular domain of VEGFR2 at applied concentrations. (B) Two-dimensional representation of interactions (produced by LigPlot software) in L-VGB3/VEGFR2 […]

Ki67-positive cells = assay: Ki67 immunohistochemistry of 4T1 tumors (proliferation); assay type: in vivo, murine; details: 0.2 mg·kg^−1 i.v.; n = 3
Description: (§1) Figure 2 Loop formation is important for the antitumor activity of VGB3. (A) To investigate the efficacy of VGB3 peptides in vivo 13 days after transplantation of a 4T1 murine MCT into female BALB/c mice (the tumor volume ~150 mm^3), the treatment groups received 0.2 mg·kg^−1 (once every 2 days, i.v.) of either the C-VGB3 or L-VGB3 and the control group received PBS for 20 days. Error bars denote ± SEM. n = 6; **** p < 0.0001, ns = not significant; two-way ANOVA. (B) Investigation of C-VGB3 and L-VGB3 effects on mice weight. […] (C,D) Immunohistochemical (IHC) analyses of CD31 and Ki67 for the C-VGB3-, L-VGB3- and PBS-treated tumors. For IHC staining, the sections of tumor tissues were incubated with the primary mouse monoclonal antibodies for CD31 (1:2000 (v/v)) and Ki67 (5 µg·mL^−1). […] Photographs were taken at 40× magnification. Error bars denote ± SEM. n = 3; * 0.02 ≤ p ≤ 0.04, ns = not significant; one-way ANOVA.
For immunohistochemistry staining, deparaffinized tumor sections were incubated overnight at 4 °C with mouse monoclonal primary anti-Ki67 (5 µg·mL^−1) or anti-CD31 (1:2000 (v/v)). The antigens were detected using 3,3-diaminobenzidine. All images were captured and analyzed with an Olympus BX51 microscope (Olympus America, New York, NY, USA).

HUVE and 4T1 cell lines = assay: MTT assay, HUVE and 4T1 cell lines (linear vs cyclic peptide, not separated); assay type: cell-based; details: cell line not specified at the place; 0–1.81 μM, 24 and 48 h
Description: The effects of C-VGB3 and L-VGB3 on the cell survival of HUVE and 4T1 cell lines were investigated using the MTT assay, as previously described, with some modifications. Cells were incubated with (0–1.81 μM) or without the peptide in the presence (20 ng·mL^−1) or in the absence of VEGF (Sigma-Aldrich, St. Louis, MO, USA). After 24 and 48 h of incubation at 37 °C, the absorbance at 570 nm was recorded using an ELISA plate reader (Space Fax 2100, Awareness, Palm City, FL, USA). The tests were repeated three times.

[3] = system: 4T1 murine MCT in female BALB/c mice; assay type: in vivo; details: 0.2 mg·kg^−1 i.v. once every 2 days, day 13 to 33; n = 6
Description: as §1
The antitumor efficacy of the peptides was investigated as described previously. Thirteen days after implanting, tumor (~150 mm^3)-bearing mice were grouped randomly into control and treated animals (6/group). […] The volume of tumors was calculated as 0.52 × length × width^2. In addition, changes in the weight of animals were recorded every 2 days.

[4] = body weight / tolerability of treated 4T1 tumor-bearing mice; assay type: in vivo; details: 0.2 mg·kg^−1 i.v. once every 2 days
Description: as §1
The antitumor efficacy of the peptides was investigated as described previously. Thirteen days after implanting, tumor (~150 mm^3)-bearing mice were grouped randomly into control and treated animals (6/group). From day 13 to day 33, the treatment group received cyclic or linear VGB3 (0.2 mg·kg^−1), whereas the control group received an equal volume of PBS (i.v., once every two days). The volume of tumors was calculated as 0.52 × length × width^2. In addition, changes in the weight of animals were recorded every 2 days.

Sequence of UniProt P35968 (P35968 20-764): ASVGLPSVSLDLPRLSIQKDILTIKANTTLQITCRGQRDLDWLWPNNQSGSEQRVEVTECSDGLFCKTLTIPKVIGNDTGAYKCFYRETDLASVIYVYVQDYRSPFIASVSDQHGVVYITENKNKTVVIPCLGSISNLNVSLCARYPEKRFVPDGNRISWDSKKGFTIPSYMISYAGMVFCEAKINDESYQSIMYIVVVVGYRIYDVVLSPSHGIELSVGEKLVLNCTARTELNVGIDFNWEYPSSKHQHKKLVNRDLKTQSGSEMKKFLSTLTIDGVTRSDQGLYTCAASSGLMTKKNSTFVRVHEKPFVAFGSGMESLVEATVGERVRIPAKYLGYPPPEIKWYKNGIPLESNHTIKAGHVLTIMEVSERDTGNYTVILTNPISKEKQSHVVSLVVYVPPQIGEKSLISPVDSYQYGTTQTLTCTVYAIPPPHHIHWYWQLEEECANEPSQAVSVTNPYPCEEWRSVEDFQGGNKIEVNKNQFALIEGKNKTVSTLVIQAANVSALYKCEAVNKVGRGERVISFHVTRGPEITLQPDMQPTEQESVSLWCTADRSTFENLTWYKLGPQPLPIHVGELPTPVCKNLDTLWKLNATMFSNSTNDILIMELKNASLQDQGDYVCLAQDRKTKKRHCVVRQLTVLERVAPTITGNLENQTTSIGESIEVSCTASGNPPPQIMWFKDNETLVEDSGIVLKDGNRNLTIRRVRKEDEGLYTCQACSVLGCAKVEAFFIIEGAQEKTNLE

percent displacement of btVEGF165 at 100 μM C-VGB3 [1] [%] | Substance | binding to VEGFR2 extracellular domain ([2]; 3 mM, competition binding assay) | binding to VEGFR2 extracellular domain ([2]; 3.16-3160 μM, ELISA-based displacement assay) | decrease in Ki67-positive cells, in words (Ki67-positive cells) | antiproliferative property (HUVE and 4T1 cell lines) | inhibition of 4T1 MCT (tumor growth), in words [3] | toxicity at this dosage (weight gain) ([4]; three weeks) | mice weight vs control groups ([4]; two-way ANOVA)
58 | C-VGB3 (cyclic VGB3) (peptide) |  |  |  |  |  |  | 
 | H-ECRPPDDGLC-OH (cysteine pairing not given here) [L-VGB3, linear structure of VGB3] | no measurable binding | no binding | ineffective | abolished | no effect | not toxic | no significant differences
